Experimental data from ChEMBL document CHEMBL5465560, “Selectivity Literature for EUbOPEN Chemogenomic Library” (2024).

Assays:
[1] = target: Dual specificity mitogen-activated protein kinase kinase 1 (Homo sapiens, UniProt Q02750)
[2] = target: T1, NUAK family SNF1-like kinase 1 (Homo sapiens) (UniProt O60285); assay: Selectivity interaction (KinomeScan (DiscoverX)) EUB0000666a NUAK1; settings: at 10 µM
T1 sequence (whole entry): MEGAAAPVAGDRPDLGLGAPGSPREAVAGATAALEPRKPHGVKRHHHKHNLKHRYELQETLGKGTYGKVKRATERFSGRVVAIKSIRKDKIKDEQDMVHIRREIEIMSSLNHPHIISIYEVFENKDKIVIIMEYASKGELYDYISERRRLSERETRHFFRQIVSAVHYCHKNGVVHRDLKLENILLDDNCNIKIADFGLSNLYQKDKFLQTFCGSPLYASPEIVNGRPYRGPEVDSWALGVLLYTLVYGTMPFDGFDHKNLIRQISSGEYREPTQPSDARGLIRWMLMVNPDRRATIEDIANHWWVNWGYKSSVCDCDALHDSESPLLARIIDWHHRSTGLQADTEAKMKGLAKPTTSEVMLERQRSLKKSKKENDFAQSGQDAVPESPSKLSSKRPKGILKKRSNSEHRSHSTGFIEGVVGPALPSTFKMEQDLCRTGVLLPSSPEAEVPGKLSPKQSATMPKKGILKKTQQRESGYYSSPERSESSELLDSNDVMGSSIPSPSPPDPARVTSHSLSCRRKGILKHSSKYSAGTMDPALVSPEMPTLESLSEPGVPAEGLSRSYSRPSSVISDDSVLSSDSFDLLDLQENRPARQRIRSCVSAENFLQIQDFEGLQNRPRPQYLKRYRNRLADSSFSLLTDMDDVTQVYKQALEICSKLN

[3] = target: Activin receptor type-1-like (Homo sapiens) (UniProt P37023); assay: Selectivity interaction (KinomeScan (DiscoverX)) EUB0000045b ACVRL1
Activin receptor type-1-like (Homo sapiens), sequence (P37023 whole entry): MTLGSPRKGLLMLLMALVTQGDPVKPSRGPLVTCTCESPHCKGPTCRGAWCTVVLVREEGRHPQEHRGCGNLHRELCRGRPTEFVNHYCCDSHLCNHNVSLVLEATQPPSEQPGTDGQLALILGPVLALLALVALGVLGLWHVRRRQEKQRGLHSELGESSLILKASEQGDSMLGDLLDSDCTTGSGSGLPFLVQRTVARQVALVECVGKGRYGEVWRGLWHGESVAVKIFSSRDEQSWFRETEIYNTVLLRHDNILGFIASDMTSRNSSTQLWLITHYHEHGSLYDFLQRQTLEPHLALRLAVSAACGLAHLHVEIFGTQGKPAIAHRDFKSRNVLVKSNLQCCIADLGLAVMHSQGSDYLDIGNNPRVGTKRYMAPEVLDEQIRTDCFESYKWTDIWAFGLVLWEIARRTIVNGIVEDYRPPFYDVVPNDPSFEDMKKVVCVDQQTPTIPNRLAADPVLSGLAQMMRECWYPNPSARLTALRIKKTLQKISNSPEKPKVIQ

[4] = target: T2, Serine/threonine-protein kinase Nek3 (Homo sapiens) (UniProt P51956); assay: Selectivity interaction (KinomeScan (DiscoverX)) EUB0000655a NEK3; settings: at 10 µM
T2 sequence (whole entry): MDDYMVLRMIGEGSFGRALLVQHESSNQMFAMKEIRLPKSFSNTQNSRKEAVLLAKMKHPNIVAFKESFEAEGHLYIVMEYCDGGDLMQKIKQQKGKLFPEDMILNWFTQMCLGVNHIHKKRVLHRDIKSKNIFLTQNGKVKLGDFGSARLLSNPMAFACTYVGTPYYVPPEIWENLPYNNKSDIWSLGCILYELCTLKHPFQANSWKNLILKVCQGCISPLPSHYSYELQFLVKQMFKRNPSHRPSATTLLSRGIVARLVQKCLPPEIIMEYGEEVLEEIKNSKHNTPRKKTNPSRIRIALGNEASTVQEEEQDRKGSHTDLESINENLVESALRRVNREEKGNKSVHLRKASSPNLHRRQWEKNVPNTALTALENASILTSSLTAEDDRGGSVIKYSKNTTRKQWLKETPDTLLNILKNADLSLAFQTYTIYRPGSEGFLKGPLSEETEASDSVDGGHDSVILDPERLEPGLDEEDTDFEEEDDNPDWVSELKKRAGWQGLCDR

[5] = target: Serine/threonine-protein kinase Nek4 (Homo sapiens) (UniProt P51957); assay: Selectivity interaction (KinomeScan (DiscoverX)) EUB0000695a NEK4; settings: at 100 nM
Serine/threonine-protein kinase Nek4 (Homo sapiens), sequence (P51957 whole entry, looked up): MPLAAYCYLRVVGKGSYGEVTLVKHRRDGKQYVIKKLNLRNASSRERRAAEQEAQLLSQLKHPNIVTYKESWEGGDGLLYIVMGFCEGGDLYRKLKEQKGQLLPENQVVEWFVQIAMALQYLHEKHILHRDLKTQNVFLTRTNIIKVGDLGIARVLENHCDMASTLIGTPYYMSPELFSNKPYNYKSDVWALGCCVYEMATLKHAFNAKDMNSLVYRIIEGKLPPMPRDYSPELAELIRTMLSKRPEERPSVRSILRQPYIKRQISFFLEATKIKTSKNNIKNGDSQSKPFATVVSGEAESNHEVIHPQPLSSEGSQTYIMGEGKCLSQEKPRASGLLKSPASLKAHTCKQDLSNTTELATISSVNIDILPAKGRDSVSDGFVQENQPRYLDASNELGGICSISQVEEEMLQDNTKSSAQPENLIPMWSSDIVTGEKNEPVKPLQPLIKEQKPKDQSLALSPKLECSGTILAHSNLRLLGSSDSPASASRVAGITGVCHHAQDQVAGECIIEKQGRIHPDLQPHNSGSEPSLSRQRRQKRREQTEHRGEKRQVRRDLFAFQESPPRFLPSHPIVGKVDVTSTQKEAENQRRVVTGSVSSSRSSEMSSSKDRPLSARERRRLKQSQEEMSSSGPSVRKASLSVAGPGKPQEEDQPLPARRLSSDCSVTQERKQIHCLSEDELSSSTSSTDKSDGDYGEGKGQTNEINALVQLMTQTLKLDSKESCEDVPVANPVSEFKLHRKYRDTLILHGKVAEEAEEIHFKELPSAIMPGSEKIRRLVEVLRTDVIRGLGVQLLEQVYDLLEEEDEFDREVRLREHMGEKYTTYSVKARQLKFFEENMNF

[6] = target: Proto-oncogene tyrosine-protein kinase receptor Ret (Homo sapiens, UniProt P07949); assay: (§1) Selectivity interaction (SelectScreen profiling (Invitrogen)) EUB0000607a RET; settings: at 2 µM
Proto-oncogene tyrosine-protein kinase receptor Ret, sequence (P07949 whole entry): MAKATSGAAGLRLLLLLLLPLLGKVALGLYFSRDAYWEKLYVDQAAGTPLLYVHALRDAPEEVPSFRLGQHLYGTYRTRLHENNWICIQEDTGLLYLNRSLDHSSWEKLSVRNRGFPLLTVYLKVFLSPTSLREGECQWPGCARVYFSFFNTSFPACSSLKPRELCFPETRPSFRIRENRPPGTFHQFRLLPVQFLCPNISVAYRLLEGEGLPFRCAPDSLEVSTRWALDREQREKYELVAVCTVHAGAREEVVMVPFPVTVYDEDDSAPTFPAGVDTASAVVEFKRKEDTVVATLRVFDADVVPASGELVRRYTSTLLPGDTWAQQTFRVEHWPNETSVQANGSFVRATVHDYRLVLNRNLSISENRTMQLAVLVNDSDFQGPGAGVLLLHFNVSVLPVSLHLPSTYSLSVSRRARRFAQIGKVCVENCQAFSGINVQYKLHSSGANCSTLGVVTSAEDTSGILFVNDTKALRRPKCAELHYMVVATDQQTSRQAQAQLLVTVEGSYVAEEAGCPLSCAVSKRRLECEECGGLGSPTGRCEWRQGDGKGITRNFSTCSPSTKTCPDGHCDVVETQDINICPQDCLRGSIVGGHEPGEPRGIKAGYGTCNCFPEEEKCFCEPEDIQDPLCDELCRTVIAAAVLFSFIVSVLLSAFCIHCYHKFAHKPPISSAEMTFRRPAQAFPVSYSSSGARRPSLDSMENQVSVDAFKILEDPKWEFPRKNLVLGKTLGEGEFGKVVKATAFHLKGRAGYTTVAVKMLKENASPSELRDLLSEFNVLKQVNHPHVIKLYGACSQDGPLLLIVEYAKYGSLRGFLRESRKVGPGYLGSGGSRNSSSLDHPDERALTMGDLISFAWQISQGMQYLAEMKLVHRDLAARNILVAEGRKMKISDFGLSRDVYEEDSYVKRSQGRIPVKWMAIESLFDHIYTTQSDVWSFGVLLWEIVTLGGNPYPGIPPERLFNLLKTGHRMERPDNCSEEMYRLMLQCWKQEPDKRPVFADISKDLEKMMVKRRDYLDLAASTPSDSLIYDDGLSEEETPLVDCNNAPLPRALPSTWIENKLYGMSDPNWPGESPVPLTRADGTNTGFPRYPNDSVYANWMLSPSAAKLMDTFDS

[7] = system: Proto-oncogene tyrosine-protein kinase receptor Ret (Homo sapiens), P07949 [Y791F]; assay: as §1; settings: at 2 µM
Proto-oncogene tyrosine-protein kinase receptor Ret (Homo sapiens), P07949 [Y791F], sequence (P07949 whole entry Y791F): as the sequence (P07949 whole entry) above, with Y791F counted along it

[8] = system: Proto-oncogene tyrosine-protein kinase receptor Ret (Homo sapiens), P07949 [V804L]; assay: as §1; settings: at 2 µM
Proto-oncogene tyrosine-protein kinase receptor Ret (Homo sapiens), P07949 [V804L], sequence (P07949 whole entry V804L): as the sequence (P07949 whole entry) above, with V804L counted along it

[9] = target: T3, Histone-lysine N-methyltransferase EHMT1 (Homo sapiens) (UniProt Q9H9B1); assay: Selectivity interaction (Methyltransferase screen (radiometric assays, panel of 8 PRMTs, 21 protein lysine methyltransferases, 3 DNA methyltransferases, and one RNA methyltransferase)) EUB0000272b EHMT1
T3 sequence (whole entry): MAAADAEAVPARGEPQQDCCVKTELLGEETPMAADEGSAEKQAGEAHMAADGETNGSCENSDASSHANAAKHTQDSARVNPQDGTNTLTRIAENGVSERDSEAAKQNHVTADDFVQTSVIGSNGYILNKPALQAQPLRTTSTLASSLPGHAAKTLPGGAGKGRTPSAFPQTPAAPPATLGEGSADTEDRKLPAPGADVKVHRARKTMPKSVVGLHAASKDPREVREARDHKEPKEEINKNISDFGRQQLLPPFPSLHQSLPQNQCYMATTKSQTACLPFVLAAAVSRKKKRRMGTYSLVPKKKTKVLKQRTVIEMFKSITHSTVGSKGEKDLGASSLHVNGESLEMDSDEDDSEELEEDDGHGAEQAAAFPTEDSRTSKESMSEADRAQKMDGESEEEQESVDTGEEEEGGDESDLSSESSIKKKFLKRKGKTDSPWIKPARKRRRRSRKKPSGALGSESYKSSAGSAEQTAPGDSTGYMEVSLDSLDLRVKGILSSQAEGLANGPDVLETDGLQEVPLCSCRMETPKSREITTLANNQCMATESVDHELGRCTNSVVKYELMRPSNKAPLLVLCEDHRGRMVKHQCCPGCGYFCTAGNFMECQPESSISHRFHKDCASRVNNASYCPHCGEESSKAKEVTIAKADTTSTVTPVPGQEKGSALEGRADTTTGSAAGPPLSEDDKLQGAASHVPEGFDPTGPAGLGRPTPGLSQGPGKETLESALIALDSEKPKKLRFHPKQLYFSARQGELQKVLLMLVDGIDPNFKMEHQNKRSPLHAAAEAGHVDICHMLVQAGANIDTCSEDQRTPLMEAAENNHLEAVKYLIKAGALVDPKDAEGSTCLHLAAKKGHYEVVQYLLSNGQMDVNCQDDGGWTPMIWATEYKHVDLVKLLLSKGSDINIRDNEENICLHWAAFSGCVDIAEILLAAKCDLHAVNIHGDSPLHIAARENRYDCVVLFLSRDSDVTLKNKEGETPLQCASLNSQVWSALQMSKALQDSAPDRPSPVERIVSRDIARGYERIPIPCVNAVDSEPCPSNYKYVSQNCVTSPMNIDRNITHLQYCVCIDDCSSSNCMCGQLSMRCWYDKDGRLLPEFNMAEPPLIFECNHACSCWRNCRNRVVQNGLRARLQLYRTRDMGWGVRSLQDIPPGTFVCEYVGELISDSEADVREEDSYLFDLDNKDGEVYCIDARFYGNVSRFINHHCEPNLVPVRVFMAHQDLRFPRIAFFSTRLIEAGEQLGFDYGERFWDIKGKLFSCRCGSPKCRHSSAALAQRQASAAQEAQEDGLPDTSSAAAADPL

Dual specificity mitogen-activated protein kinase kinase 1, sequence (Q02750 whole entry): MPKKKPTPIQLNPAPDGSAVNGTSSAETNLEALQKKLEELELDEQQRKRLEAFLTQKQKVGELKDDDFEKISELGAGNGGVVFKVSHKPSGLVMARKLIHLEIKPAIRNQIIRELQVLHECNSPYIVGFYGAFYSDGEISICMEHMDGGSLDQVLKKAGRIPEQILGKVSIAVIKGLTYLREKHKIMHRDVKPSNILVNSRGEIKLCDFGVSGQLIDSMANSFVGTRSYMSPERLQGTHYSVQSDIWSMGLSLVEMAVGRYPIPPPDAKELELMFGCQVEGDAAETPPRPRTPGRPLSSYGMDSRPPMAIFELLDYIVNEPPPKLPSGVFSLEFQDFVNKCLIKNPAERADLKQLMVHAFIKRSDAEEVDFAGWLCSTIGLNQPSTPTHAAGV

For `CC(=O)Nc1cccc(-n2c(=O)n(C3CC3)c(=O)c3c(Nc4ccc(I)cc4F)n(C)c(=O)c(C)c32)c1`, the Kdapp [1] was 62 nM.

For `O=C(NOC[C@H](O)CO)c1ccc(F)c(F)c1Nc1ccc(I)cc1F`, the % of control [2] was 81%.

`C=CC(=O)Nc1cc(-n2c(=O)ccc3cnc4ccc(-c5ccc(NS(C)(=O)=O)cc5)cc4c32)ccc1C` gave a % of control ([3]; at 1 µM) of 100% and a % of control ([3]; at 10 µM) of 75%.

`CN(C)CCOc1ccc(-c2nc(-c3ccncc3)c(-c3ccc4c(c3)CC/C4=N\O)[nH]2)cc1` gave a % of control [4] of 71%.

`Cc1cc(F)c(C(=O)Nc2cccc(-c3nncn3C(C)C)n2)cc1-n1cnc(C2CC2)c1` was tested, and the % of control [5] was 100%.

Work on `CNC(=O)Nc1ccc(-c2nc(N3CC4CCC(C3)O4)c3cnn(C4CCC5(CC4)OCCO5)c3n2)cc1` yielded a % of inhibition [6] of 4%, a % of inhibition [7] of 2% and a % of inhibition [8] of 2%.

Work on `Cc1cc(C)cc([C@H]2c3cc(C)ccc3NC(=O)CN2C(=O)c2ccc(Br)s2)c1` yielded a % of activity ([9]; at 1 µM) of 98% and a % of activity ([9]; at 10 µM) of 101%.
